Results published in US8022203B2, “Amino derivatives of beta-homoandrostanes and beta-heteroandrostanes” (Sigma-Tau Industrie Farmaceutiche Riunite S.p.A., priority 2006, dated 2011).
Structures can show the parent of a compound that is named as a salt.

molecular target: Na^+,K^+-ATPase (Canis lupus familiaris, UniProt P50997); test: Dog kidney Na+,K+-ATPase inhibition (hydrolysis of 32P-ATP); assay type: biochemical; settings: Na^+,K^+-ATPase Inhibition IC50

SMILES | IC50 [nM]
CC12CCC3C(CC(=O)NC4CC(=NOC5CCNC5)CCC43C)C1CCC2=O [I-ad, (E,Z) 3-[3-(R)-Pyrrolidinyl]oxyimino-6-aza-7a-homoandrostane-7,17-dione fumarate] | 950
CC12CCC3C(CCNC4CC(=NOC5CCNC5)CCC43C)C1CCC2=O [I-am, (E,Z) 3-[3-(R)-Pyrrolidinyl]oxyimino-6-aza-7a-homoandrostane-17-one dihydrochloride] | 9500
CON=C1CC2C3CCC(=O)C3(C)CCC2C2(C)CCC(=NOC3CCNC3)CC2N1 [I-au, 3-(E,Z)-[3-(R)-Pyrrolidinyl]oxyimino-6-aza-7a-homo-7-(Z)-methoxyimino-androstane-17-one hydrochloride] | 68000
CC12CCC3C(NC(=O)CC4CC(=NOC5CCNC5)CCC43C)C1CCC2=O [I-ax, (E,Z) 3-[3-(R)-Pyrrolidinyl]oxyimino-7a-aza-7a-homoandrostane-7,17-dione hydrochloride] | 4800
CC12CCC3C(COC(=O)C4CC(=NOCCN)CCC43C)C1CCC2=O (stereo not drawn) [I-be, (E,Z) 3-(2-Aminoethoxyimino)-7-oxa-7a-homoandrostane-6,17-dione hydrochloride] | 1600
CNCCCON=C1CCC2(C)C(C1)C(=O)OCC1C3CCC(=O)C3(C)CCC12 (stereo not drawn) [I-bf, (E,Z)-3-(3-N-Methylaminopropoxyimino)-7-oxa-7a-homoandrostane-6,17-dione hydrochloride] | 1900
CC12CCC3C(COC(=O)C4CC(=NOC5CCNC5)CCC43C)C1CCC2=O [I-bg, (E,Z) 3-[3-(R)-Pyrrolidinyl]oxyimino-7-oxa-7a-homoandrostane-6,17-dione hydrochloride] | 810
CNCCCON=C1CCC2(C)C(CC(=O)OC3C4CCC(=O)C4(C)CCC32)C1 (stereo not drawn) [I-bj, (E,Z) 3-(3-N-Methylaminopropoxyimino)-7a-oxa-7a-homoandrostane-7,17-dione hydrochloride] | 2200
CC12CCC3C(CC(=O)NC4CC(=NOCCN)CCC43C)C1CCC2=O (stereo not drawn) [I-bm, (E) 3-(2-Aminoethoxyimino)-6-aza-7a-homoandrostane-7,17-dione fumarate] | 25000
CC12CCC3C(CC(=O)NC4CC(=NOCCN)CCC43C)C1CCC2=O (stereo not drawn) [I-bn, (Z) 3-(2-Aminoethoxyimino)-6-aza-7a-homoandrostane-7,17-dione fumarate] | 61000
CC12CCC3C(CCCC4CC(=NOCCN)CCC43C)C1CCC2=O (stereo not drawn) [I-bo, (E,Z) 3-(2-Aminoethoxyimino)-B-homoandrostane-17-one hydrochloride] | 71
CC12CCC3C(CCCC4CC(=NOC5CCNC5)CCC43C)C1CCC2=O [I-bp, (E,Z)-3-[3-(R)-Pyrrolidinyl]oxyimino-B-homoandrostane-17-one hydrochloride] | 40
CNCCCON=C1CCC2(C)C(C1)OC(=O)CC1C3CCC(=O)C3(C)CCC12 (stereo not drawn) [I-bq, (E,Z)-3-(3-N-Methylaminopropoxyimino)-6-oxa-7a-homoandrostane-7,17-dione fumarate] | 3700
CC12CCC3C(CC(=O)OC4CC(=NOC5CCNC5)CCC43C)C1CCC2=O [I-br, (E,Z) 3-[3-(R)-Pyrrolidinyl]oxyimino-6-oxa-7a-homoandrostane-7,17-dione fumarate] | 1300
CC12CCC3C(C(=O)NC4CC(=NOC5CCNC5)CCC43C)C1CCC2=O [I-bv, (E,Z) 3-[3-(R)-Pyrrolidinyl]oxyimino-6-azaandrostane-7,17-dione fumarate] | 1400

same assay, conditions: dog kidney enzyme; read-out: Na^+,K^+-ATPase Inhibition IC50

SMILES | IC50 [nM]
CC12CCC3C(CC(=S)NC4CC(=NOCCN)CCC43C)C1CCC2=O (stereo not drawn) [I-aj, (E,Z) 3-(2-Aminoethoxyimino)-6-aza-7a-homo-7-thioxoandrostane-17-one hydrochloride] | 6500
CC12CCC3C(CCNC4CC(=NOCCN)CCC43C)C1CCC2=O (stereo not drawn) [I-ak, (E,Z)—3-(2-Aminoethoxyimino)-6-aza-7a-homoandrostane-17-one dihydrochloride] | 29000
CC12CCC3C(CCN(C=O)C4CC(=NOCCN)CCC34C)C1CCC2=O (stereo not drawn) [I-an, (E,Z) 3-(2-Aminoethoxyimino)-6-aza-6-formyl-7a-homoandrostane-17-one hydrochloride] | 23000
CON=C1CC2C3CCC(=O)C3(C)CCC2C2(C)CCC(=NOCCN)CC2N1 (stereo not drawn) [I-at, (E,Z) 3-(2-Aminoethoxyimino)-6-aza-7a-homo-7-(Z)-methoxyimino-androstane-17-one hydrochloride] | 48000
CC12CCC3C(NC(=O)CC4CC(=NOCCN)CCC43C)C1CCC2=O (stereo not drawn) [I-av, (E,Z) 3-(2-Aminoethoxyimino)-7a-aza-7a-homoandrostane-7,17-dione hydrochloride] | 27000
CNCCCON=C1CCC2(C)C(CC(=O)NC3C4CCC(=O)C4(C)CCC32)C1 (stereo not drawn) [I-aw, (E,Z) 3-(3-N-Methylaminopropoxyimino)-7a-aza-7a-homoandrostane-7,17-dione hydrochloride] | 9900
CC12CCC3C(NCCC4CC(=NOCCN)CCC43C)C1CCC2=O (stereo not drawn) [I-ay, (E,Z) 3-(2-Aminoethoxyimino)-7a-aza-7a-homoandrostane-17-one difumarate] | 400
CNCCCON=C1CCC2(C)C(CCNC3C4CCC(=O)C4(C)CCC32)C1 (stereo not drawn) [I-az, (E,Z) 3-(3-N-Methylaminopropoxyimino)-7a-aza-7a-homoandrostane-17-one difumarate] | 1800
CC12CCC3C(C1CCC2=O)N(C=O)CCC1CC(=NOC2CCNC2)CCC13C [I-bd, (E,Z) 3-[3-(R)-Pyrrolidinyl]oxyimino-7a-aza-7a-formyl-7a-homoandrostane-17-one hydrochloride] | 57000
CC12CCC3C(CC(=O)OC4CC(=NOCCN)CCC43C)C1CCC2=O (stereo not drawn) [I-bh, (E,Z) 3-(2-Aminoethoxyimino)-6-oxa-7a-homoandrostane-7,17-dione fumarate] | 240
CC12CCC3C(OC(=O)CC4CC(=NOCCN)CCC43C)C1CCC2=O (stereo not drawn) [I-bi, (E,Z) 3-(2-Aminoethoxyimino)-7a-oxa-7a-homoandrostane-7,17-dione hydrochloride] | 850
CC12CCC3C(C(=O)OC4CC(=NOCCN)CCC43C)C1CCC2=O (stereo not drawn) [I-bl, (E,Z) 3-(2-Aminoethoxyimino)-6-oxa-5β-androstane-7,17-dione hydrochloride] | 2500
CC12CCC3C(CCOC4CC(=NOCCN)CCC43C)C1CCC2=O (stereo not drawn) [I-bs, (E,Z)-3-(2-Aminoethoxyimino)-6-oxa-7a-homoandrostane-17-one hydrochloride] | 130
CC12CCC3C(OCCC4CC(=NOCCN)CCC43C)C1CCC2=O (stereo not drawn) [I-bt, (E,Z)-3-(2-Aminoethoxyimino)-7a-oxa-7a-homoandrostane-17-one hydrochloride] | 160
CC12CCC3C(C(=O)NC4CC(=NOCCN)CCC43C)C1CCC2=O (stereo not drawn) [I-bu, (E,Z) 3-(2-Aminoethoxyimino)-6-azaandrostane-7,17-dione hydrochloride] | 1100
